Experimental data: patent US7049301B2, “Quercetin derivatives and their medical usages” (Academy of Military Medical Sciences Institute of …, priority 2001, dated 2006)
Like-named read-outs stand apart in the source and are kept apart here. Each block holds one compound with its values, some of them ahead of it.

How the values were obtained:
[1] = test system: PC-12 cells damaged by corticosterone; experiment: Protection of PC-12 cells damaged by corticosterone (MTT); type: cell-based, rat; settings: for Absorbance (A): 10^−4 mol/L corticosterone, 48 h, MTT, 570 nm; for Increase of A (%): vs damaged control
Experimental: 3.2. Protection Effect of Compound of Formula I on PC-12 Cells Damaged by Corticosterone.
PC-12 cells are diluted into a suspension (2×10^5 cells/ml) with DMEM culture solution containing 5% calf serum and 5% horse serum, and then are transplanted into 96-well plates pretreated with polylysine, and cultivated under conditions of 37° C. and 5% CO2 for 2˜3 days. Cells are to grow all over the wells bottom before test. The culture solution is then pipetted away and serum-free DMEM is added containing certain concentration of test medicine and 10^−4 mol/L corticosterone, 10 μl of 5 mg/ml MTT is added 48 hours later to each well, shaking up slightly and, 4 hours later, 100 μl of 10% SDS is added to each well, again shaking up slightly. The plates are then left in the incubator overnight at 37° C.(about 8˜12 hours). After all the dark-blue crystals are dissolved, shaking up slightly and absorbance (A) of each sample at 570 nm is read using microplate reader.

mice = experiment: Forced swimming test; type: in vivo; settings: for Duration of immobility: abdominal administration, last 4 of 6 minutes; for immobility time: oral
Experimental: (1) The test is carried out according to literature (Arch Int. Pharmacodn. Ther, 1977, 229(2): 327). 30 minutes after abdominal injection or 60 minutes after oral administration, the mice are put into an open glass box (19 cm high and 12 cm of diameter). Water inside the glass box is 8 cm in depth and 22˜23° C. in temperature. The mice are put into the water for 6 minutes and observed by Vidio movement analyzer, the accumulated immobility time of the mice during the last 4 minutes and their activity are analyzed identically as above.

5HT1A receptor = target: T1, 5HT1A receptor (Rattus norvegicus, UniProt P19327); experiment: 5HT1A receptor test, competition with 3H-8-OH-DPAT on rat hippocampal membrane receptor; type: binding
T1 construct: 50 μl of 1:5 suspension of rat hippocampal membrane receptor; from tissue; host or cells: rat hippocampal membranes
T1 sequence (P19327 1-422): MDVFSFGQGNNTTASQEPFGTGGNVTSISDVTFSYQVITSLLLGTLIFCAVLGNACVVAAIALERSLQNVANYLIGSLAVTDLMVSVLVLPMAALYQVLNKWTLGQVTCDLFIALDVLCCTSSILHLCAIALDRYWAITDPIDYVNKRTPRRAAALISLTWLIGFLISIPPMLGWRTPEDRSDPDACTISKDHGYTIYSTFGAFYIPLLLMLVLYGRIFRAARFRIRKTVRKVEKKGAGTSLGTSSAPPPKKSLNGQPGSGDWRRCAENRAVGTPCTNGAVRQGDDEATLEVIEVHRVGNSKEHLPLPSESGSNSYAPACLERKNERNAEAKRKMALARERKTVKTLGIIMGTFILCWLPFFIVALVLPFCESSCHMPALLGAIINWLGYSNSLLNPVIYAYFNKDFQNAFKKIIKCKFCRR
Experimental: 20 μl of ^3H-8-OH-DPAT ([…]) and 20 μl of sample solutions of different concentrations are added into 50 μl of 1:5 suspension of rat hippocampal membrane receptor, followed by addition of buffer solution to make up to final volume of 200 μL. Then the above-mentioned suspension is shaken up and incubated in a water-bath at 25° C. for 30 minutes. After quick filtration by suction and washing the membrane receptors, radioactivity value is read by liquid scintillation counter. 20 μl of 5HT […] sulfate (1 mmol) solution is used instead to determine the non-specific conjugation. Buspirone, a partially activating agent of 5HT1A receptor, is used as the positive control. The competitive inhibition rate of the sample to ^3H-8-OH-DPAT is calculated according to the radioactivity value.

adenylate cyclase (AC) = experiment: Activation of adenylate cyclase (AC) in rat cerebral cortex synaptolemma, cAMP produced; type: biochemical; settings: for Amount of cAMP produced: X ± SD; for Activation of AC (in words): rat cerebral cortex synaptolemma
Experimental: 3.1 Effect on Activities of Adenylate Cyclase (AC) in Rat Cerebral Cortex:
Male Wistar rats weighed 200±20 g are sacrificed by decollation, and cerebral cortex is separated. Synaptolemma is extracted at 4° C. according to the method as described in literature (Rasenick M M et al, Pro. Natl. Acad. Sci. USA, 1980; 77:4628) and suspended in buffer solution, so that a protein concentration of 3˜5 mg/ml is reached. The synaptolemma has to be incubated in advance with the test medicine, as adenylate cyclase (AC) is located on it. The experiment is carried out as follows: portions of 100 μl reaction solution containing certain concentration of test medicine and 15 mmol/L HEPES, pH=7.5, 5 mmol/L MgCl2, 1 mmol/L EGTA, […], 60 mmol/L NaCl, 1 mmol/L aminophylline, 0.5 mg/ml phosphocreatine and 0.14 mg/ml phosphocreatine kinase are respectively dispensed into reaction tubes, followed by addition of 20 μg synaptolemma to each tube. Then, the tubes are immediately put into a water-bath at 30° C. to react for 10 minutes, which reaction is linear during the first 20 minutes. After that, all the reaction tubes are immediately transferred into boiling water and deposited for 3 minutes to terminate the reaction. The amount of cAMP thus produced is measured in an ice-bath environment with cAMP kit, the total reaction volume is 130 μL. The measure is carried out according to the instruction of the kit: various reagents are added and, after the reaction finishes, the tubes are centrifugated at 4000 rpm for 7 minutes. 120 μl supernatant is then pipetted into the measure cup, added afterwards with 1.5 ml anhydrous alcohol, after shaken up, 3.5 ml of scintillation solution is added. Then, the cups are sealed and shaken up, and are left overnight. The values of […] of all samples are determined then by Wallac 1409 liquid scintillation counter. The amount of cAMP produced can be calculated according to the standard curve and CPM. The results are statistically analyzed by ANOVA, and Dunnett's T test is made for inter-group comparison.

Structure (SMILES): CC1OC(OC[C@H]2O[C@@H](Oc3c(-c4ccc(O)c(O)c4)oc4cc(O)cc(O)c4c3=O)[C@H](O[C@@H]3OC[C@](O)(CO)[C@H]3O)[C@@H](O)[C@@H]2O)C(O)C(O)C1O (stereo in doubt) [Compound of formula I, quercetin-3-O-β-D-apiofuranosyl-(1→2)-[α-D-rhamnopyranosyl-(1→6)]-β-D-glucopyranoside]
Protection effect on PC-12 cells damaged by corticosterone (in words) [1]: strong protection effect | Absorbance (A) ([1]; 4.04 μmol·L^−1): 0.74 ± 0.14 | Increase of A (%) ([1]; 4.04 μmol·L^−1): 208.3% | Absorbance (A) ([1]; 14.38 μmol·L^−1): 0.84 ± 0.08 | Increase of A (%) ([1]; 14.38 μmol·L^−1): 250.0% | Absorbance (A) ([1]; 40.43 μmol·L^−1): 0.86 ± 0.10 | Increase of A (%) ([1]; 40.43 μmol·L^−1): 258.3% | Absorbance (A) ([1]; 134.77 μmol·L^−1): 0.77 ± 0.11 | Increase of A (%) ([1]; 134.77 μmol·L^−1): 220.8% | Absorbance (A) ([1]; 404.31 μmol·L^−1): 0.61 ± 0.16 | Increase of A (%) ([1]; 404.31 μmol·L^−1): 154.2% | Duration of immobility (mice; 0.31 mg/kg): 148.69 ± 30.81 s | Duration of immobility (mice; 0.31 mg/kg, listed as compound of formula I): shorten the immobility time | Duration of immobility (mice; 1.25 mg/kg): 149.94 ± 34.87 s | Duration of immobility (mice; 5.00 mg/kg): 134.38 ± 40.99 s | immobility time (mice; 3.75 mg/kg): 95.2 ± 47.4 s | immobility time (mice; 7.5 mg/kg): 62.2 ± 45.9 s | immobility time (mice; 7.5 mg/kg, listed as compound of formula I): shorten the immobility time | immobility time (mice; 15 mg/kg): 53.6 ± 50.8 s | immobility time (mice; 30 mg/kg): 111.5 ± 52.9 s | IC50 (5HT1A receptor): ~0.05 nM | Amount of cAMP produced (adenylate cyclase (AC); 13.5 μM (0.01 mg/ml)): 23.27 ± 4.95 pmol/mg protein/minute | Amount of cAMP produced (adenylate cyclase (AC); 13.5 μM (0.01 mg/ml), listed as compound of formula I): 23.27±4.95 pmol/mg protein/minute | Amount of cAMP produced (adenylate cyclase (AC); 40.5 μM): 4.75 ± 6.33 pmol/mg protein/minute | Amount of cAMP produced (adenylate cyclase (AC); 135 μM): 43.42 pmol/mg protein/minute | AC activation relative to same doses of imipramine and buspirone (adenylate cyclase (AC); 404 μM (0.3 mg/ml)): 2˜3 times | Activation effect on AC (cAMP produced) (adenylate cyclase (AC); 404 μM (0.3 mg/ml)): 68.34±10.45 pmol/mg protein/minute | Amount of cAMP produced (adenylate cyclase (AC); 405 μM): 68.34 pmol/mg protein/minute

IC50 (5HT1A receptor; competitive inhibition of 3H-8-OH-DPAT, rat hippocampal membrane, 25° C., 30 minutes, read-out: IC50): ~0.2 nM
Structure (SMILES): CCOc1cc(OCC)c2c(=O)c(OC3OC(COC4OC(C)C(O)C(O)C4O)C(O)C(O)C3OC3OCC(O)(CO)C3O)c(-c3ccc(OCC)c(OCC)c3)oc2c1 [5,7,3′,4′,-tetraethoxyl flavonol-3-O-β-D-apiofuranosyl-(1→2)-[α-D-rhamnopyranosyl-(1→6)]-β-D-glucopyranoside]

Amount of cAMP produced (adenylate cyclase (AC); 25 μM): 19.52 ± 5.46 pmol/mg protein/minute | Amount of cAMP produced (adenylate cyclase (AC); 100 μM): 19.71 ± 5.57 pmol/mg protein/minute | Amount of cAMP produced (adenylate cyclase (AC); 400 μM): 24.63 pmol/mg protein/minute | Amount of cAMP produced (adenylate cyclase (AC); 1 mM): 33.00 pmol/mg protein/minute | Activation of AC (in words) (adenylate cyclase (AC)): dose-dependently activate AC
Structure (SMILES): O=C1CC2(CCCC2)CC(=O)N1CCCCN1CCN(c2ncccn2)CC1 [buspirone]

Amount of cAMP produced (adenylate cyclase (AC); 25 μM): 15.07 ± 4.91 pmol/mg protein/minute | Amount of cAMP produced (adenylate cyclase (AC); 100 μM): 18.53 ± 3.2 pmol/mg protein/minute | Amount of cAMP produced (adenylate cyclase (AC); 400 μM): 30.32 pmol/mg protein/minute | Amount of cAMP produced (adenylate cyclase (AC); 1 mM): 79.79 pmol/mg protein/minute | Activation of AC (in words) (adenylate cyclase (AC)): dose-dependently activate AC
Structure (SMILES): CN(C)CCCN1c2ccccc2CCc2ccccc21 [imipramine]
